From paper PMC6116705, “Design, synthesis, in vitro antiproliferative activity and apoptosis-inducing studies of 1-(3′,4′,5′-trimethoxyphenyl)-3-(2′-alkoxycarbonylindolyl)-2-propen-1-one derivatives obtained by a molecular hybridisation approach” (Journal of Enzyme Inhibition and Medicinal Chemistry, 2018)
“And” between values parts separate entries of the source, which are not always exact repeats. Equal values may be shown once. “Also recorded” adds a separate entry of the source. Read-outs that look alike come from different tables or passages of the source.

Tests used:
[1] = system: U-937 cells overexpressing human Bcl-2 (U-937/Bcl-2); assay: MTT cytotoxicity assay, U-937/Bcl-2; assay type: cell-based; conditions: U-937/Bcl-2, MTT, read-out: IC50, inhibition of cell growth
Description: (§1) U-937 (human myeloid leukaemia) cells from DSMZ (German Collection of Microorganisms and Cell Cultures, Braunschweig, Germany) and U-937 cells overexpressing human Bcl-2 protein (designated U-937/Bcl-2, donated by Dr Jacqueline Bréard, INSERM U749, Faculté de Pharmacie Paris-Sud., Châtenay-Malabry, France) were cultured in RPMI-1640 medium containing 10% (v/v) heat-inactivated foetal bovine serum, 100 μg/mL streptomycin and 100 U/mL penicillin, incubated at 37 °C in a humidified atmosphere containing 5% CO2 as described. The functioning of U-937/Bcl-2 cells was tested using the cytotoxic agent 1-β-D-arabino-furanosylcytosine as previously described. Human peripheral blood mononuclear cells (PBMC) were isolated from heparin-anticoagulated blood of healthy volunteers by centrifugation with Ficoll-Paque Plus (GE Healthcare Bio-Sciences AB, Uppsala, Sweden). PBMC were also stimulated with phytohemagglutinin (2 μg/mL) for 48 h before the experimental treatment. The trypan blue dye exclusion method was used for counting the living/dead cells by a hematocytometer with 95% viability in all experiments. The cytotoxicity of compounds was evaluated by the colorimetric 3-(4,5-dimethyl-2-thiazolyl-)-2,5-diphenyl-2H-tetrazolium bromide (MTT) assay as previously described. Briefly, 5 × 10^3 exponentially growing cells were seeded in 96-well microculture plates with increasing concentrations of compounds for 72 h. After the addition of MTT (0.5 mg/mL), cells were incubated at 37 °C for 4 h. Sodium dodecyl sulphate (10% w/v) in 0.05 M HCl was added to the wells and then incubated at room temperature overnight in the dark. Absorbance was measured at 570 nm. […] Values are mean ± SE from at least three independent experiments, each performed in triplicate. Compounds were dissolved in DMSO and kept in the dark at 25 °C.

[2] = system: human peripheral blood mononuclear cells (PBMC); assay: Cytotoxicity on normal PBMC (quiescent or PHA-activated); assay type: cell-based; conditions: up to 10 μM, 24 h
Description: as §1, with “Briefly, 5 × 10^3 exponentially growing cells were seeded in 96-well microculture plates with increasing concentrations of compounds for 72 h.” left out

[3] = system: U-937/Bcl-2 cells; assay: Cell cycle phase distribution and apoptosis, flow cytometry (propidium iodide) and fluorescence microscopy, U-937/Bcl-2; assay type: cell-based, human
Description: (§2) Fluorescent microscopy and flow cytometric analysis of propidium iodide-stained cells were performed as described. Briefly, cells were harvested and fixed in 3% paraformaldehyde and incubated at room temperature for 10 min. The fixative was removed, and the cells were washed with PBS, resuspended in 30–50 μL of PBS containing 20 μg/mL bis-benzimide trihydrochloride (Hoechst 33258) and incubated at room temperature for 15 min. Stained nuclei were visualized using a Zeiss fluorescence microscope.
(§3) Flow cytometric analysis was carried out using a BD FACSVerse™ cytometer (BD Biosciences, San Jose, CA, USA).

[4] = system: human myeloid leukaemia U-937 cells; assay: MTT cytotoxicity assay, U-937; assay type: cell-based; conditions: U-937, MTT, 72 h, read-out: IC50, inhibition of cell growth
Description: as §1

[5] = system: U-937 cells; assay: Cell cycle phase distribution and apoptosis, flow cytometry (propidium iodide) and fluorescence microscopy, U-937; assay type: cell-based, human
Description: as §2, §3

## CCOC(=O)c1[nH]c2ccc(OC)cc2c1/C=C/C(=O)c1cc(OC)c(OC)c(OC)c1 [Compound 9d, (E)-Ethyl 5-methoxy-3-(3-oxo-3-(3,4,5-trimethoxyphenyl)prop-1-en-1-yl)-1H-indole-2-carboxylate]
[1]; Homo sapiens, U-937, 72 h
  IC50: 0.7 ± 0.2 µM
[2]
  Toxicity to normal PBMC: devoid of significant cytotoxic activity; also recorded: no appreciable toxicity
[3]; U-937/Bcl-2, 24 h, 0.3 µM
  % G1: 41.0 ± 1.3%
  % G2-M: 29.7 ± 0.2%
  % S: 25.1 ± 1.1%
  % Sub-G1: 2.8 ± 0.2%
[3]; U-937/Bcl-2, 24 h, 1 µM
  % G1: 29.3 ± 0.3 %
  % G2-M: 35.7 ± 0.2 %
  % S: 28.7 ± 0.5%
  % Sub-G1: 4.6 ± 0.3%
[3]; U-937/Bcl-2, 48 h, 0.3 µM
  % G1: 49.1 ± 0.4%
  % G2-M: 18.9 ± 0.7%
  % S: 26.7 ± 2.2%
  % Sub-G1: 4.4 ± 1.0%
[3]; U-937/Bcl-2, 48 h, 1 µM
  % G1: 33.2 ± 2.3 %
  % G2-M: 31.0 ± 2.8 %
  % S: 27.4 ± 0.2%
  % Sub-G1: 6.5 ± 0.5%
[3]; U-937/Bcl-2, 72 h, 0.3 µM
  % G1: 53.6 ± 1.2%
  % G2-M: 20.0 ± 0.8%
  % S: 21.8 ± 1.4%
  % Sub-G1: 3.1 ± 0.9%
[3]; U-937/Bcl-2, 72 h, 1 µM
  % G1: 41.6 ± 2.5 %
  % G2-M: 24.8 ± 2.6%
  % S: 24.0 ± 1.8%
  % Sub-G1: 7.5 ± 1.2%
[3]; U-937/Bcl-2 cells
  apoptosis induction (fluorescence microscopy and flow cytometry): only induced low apoptosis
[4]
  IC50: 2.9 ± 0.7 µM
[5]; U-937, 24 h, 3 µM
  % G1: 52.3 ± 0.2%
  % G2-M: 21.2 ± 0.4%
  % S: 21.8 ± 0.0%
  % Sub-G1: 3.5 ± 0.3%
[5]; U-937, 24 h, 10 µM
  % G1: 44.9 ± 0.6%
  % G2-M: 24.8 ± 0.3%
  % S: 22.9 ± 0.4%
  % Sub-G1: 5.6 ± 0.5%
[5]; U-937, 48 h, 3 µM
  % G1: 52.9 ± 0.9%
  % G2-M: 18.3 ± 0.3%
  % S: 25.8 ± 0.5%
  % Sub-G1: 2.3 ± 0.1%
[5]; U-937, 48 h, 10 µM
  % G1: 55.3 ± 0.7%
  % G2-M: 16.9 ± 0.5%
  % S: 23.1 ± 0.1%
  % Sub-G1: 4.1 ± 0.4%
[5]; U-937, 72 h, 3 µM
  % G1: 53.6 ± 2.4%
  % G2-M: 15.4 ± 1.0%
  % S: 21.3 ± 1.0%
  % Sub-G1: 7.9 ± 0.2%
[5]; U-937, 72 h, 10 µM
  % G1: 55.1 ± 0.0%
  % G2-M: 15.5 ± 0.8%
  % S: 22.6 ± 0.7%
  % Sub-G1: 5.4 ± 0.2%
[5]; U-937 cells
  apoptosis induction (fluorescence microscopy and flow cytometry): not an apoptotic inducer

## COC(=O)c1[nH]c2cc(OC)ccc2c1/C=C/C(=O)c1cc(OC)c(OC)c(OC)c1 [Compound 9e, (E)-Methyl 6-methoxy-3-(3-oxo-3-(3,4,5-trimethoxyphenyl)prop-1-en-1-yl)-1H-indole-2-carboxylate]
[1]; Homo sapiens, U-937, 72 h
  IC50: ~1 µM
[1]; 72 h
  IC50: 1.1 ± 1 µM
[2]
  Toxicity to normal PBMC: devoid of significant cytotoxic activity; also recorded: no appreciable toxicity
[3]; U-937/Bcl-2, 1 μM, 72 h, versus control
  fold increase in the percentage of apoptotic (hypodiploid) cells: ~20 fold
[3]; U-937/Bcl-2, 24 h, 0.3 µM
  % G1: 24.7 ± 0.5 %
  % G2-M: 40.1 ± 1.3 %
  % S: 23.2 ± 0.2%
  % Sub-G1: 9.8 ± 0.5 %
[3]; U-937/Bcl-2, 24 h, 1 µM
  % G1: 17.4 ± 0.2 %
  % G2-M: 47.3 ± 1.2 %
  % S: 18.1 ± 1.7 %
  % Sub-G1: 15% and 14.7 ± 0.7 %
[3]; U-937/Bcl-2, 48 h, 0.3 µM
  % G1: 23.0 ± 0.7 %
  % G2-M: 34.3 ± 0.5 %
  % S: 22.4 ± 0.2%
  % Sub-G1: 14.6 ± 0.4 %
[3]; U-937/Bcl-2, 48 h, 1 µM
  % G1: 13.0 ± 0.9 %
  % G2-M: 33.2 ± 0.9 %
  % S: 15.4 ± 0.1 %
  % Sub-G1: 28% and 28.0 ± 0.7 %
[3]; U-937/Bcl-2, 72 h, 0.3 µM
  % G1: 22.4 ± 0.4 %
  % G2-M: 31.3 ± 1.3 %
  % S: 21.8 ± 0.8%
  % Sub-G1: 17.6 ± 0.5 %
[3]; U-937/Bcl-2, 72 h, 1 µM
  % G1: 12.8 ± 0.5 %
  % G2-M: 23.1 ± 2.2%
  % S: 16.0 ± 0.7%
  % Sub-G1: 36% and 36.1 ± 3.3 %
[4]
  IC50: 5.7 ± 0.1 µM
[5]; U-937, 24 h, 3 µM
  % G1: 43.2 ± 0.2%
  % G2-M: 24.5 ± 0.1%
  % S: 24.4 ± 0.1%
  % Sub-G1: 6.4 ± 0.4%
[5]; U-937, 24 h, 10 µM
  % G1: 33.0 ± 2.1 %
  % G2-M: 23.2 ± 0.3%
  % S: 27.1 ± 0.5%
  % Sub-G1: 14.3 ± 1.6 %
[5]; U-937, 48 h, 3 µM
  % G1: 53.6 ± 0.3%
  % G2-M: 16.5 ± 0.1%
  % S: 24.6 ± 0.3%
  % Sub-G1: 4.5 ± 0.2%
[5]; U-937, 48 h, 10 µM
  % G1: 39.7 ± 1.1 %
  % G2-M: 17.6 ± 0.0%
  % S: 23.3 ± 0.1%
  % Sub-G1: 17.9 ± 1.2 %
[5]; U-937, 72 h, 3 µM
  % G1: 52.0 ± 0.9 %
  % G2-M: 14.3 ± 0.2%
  % S: 21.2 ± 0.7%
  % Sub-G1: 10.8 ± 0.1%
[5]; U-937, 72 h, 10 µM
  % G1: 44.5 ± 1.4 %
  % G2-M: 14.1 ± 0.4%
  % S: 21.4 ± 0.6%
  % Sub-G1: 18.4 ± 1.2 %

## CCOC(=O)c1[nH]c2cc(OC)ccc2c1/C=C/C(=O)c1cc(OC)c(OC)c(OC)c1 [Compound 9f, (E)-Ethyl 6-methoxy-3-(3-oxo-3-(3,4,5-trimethoxyphenyl)prop-1-en-1-yl)-1H-indole-2-carboxylate]
[1]; Homo sapiens, U-937, 72 h
  IC50: 1 ± 0.8 µM
[2]
  Toxicity to normal PBMC: devoid of significant cytotoxic activity; also recorded: no appreciable toxicity
[3]; U-937/Bcl-2, 24 h, 0.3 µM
  % G1: 26.0 ± 0.9 %
  % G2-M: 41.1 ± 0.4 %
  % S: 25.2 ± 0.3%
  % Sub-G1: 6.2 ± 0.9%
[3]; U-937/Bcl-2, 24 h, 1 µM
  % G1: 17.6 ± 0.6 %
  % G2-M: 41.0 ± 2.3 %
  % S: 18.1 ± 0.1 %
  % Sub-G1: 20.6 ± 1.6 %
[3]; U-937/Bcl-2, 48 h, 0.3 µM
  % G1: 27.4 ± 0.8 %
  % G2-M: 31.6 ± 0.3 %
  % S: 26.3 ± 0.4%
  % Sub-G1: 11.1 ± 0.1 %
[3]; U-937/Bcl-2, 48 h, 1 µM
  % G1: 16.0 ± 0.0 %
  % G2-M: 28.4 ± 1.8 %
  % S: 16.5 ± 1.0 %
  % Sub-G1: 30.2 ± 3.3 %
[3]; U-937/Bcl-2, 72 h, 0.3 µM
  % G1: 30.3 ± 2.9 %
  % G2-M: 29.4 ± 2.0 %
  % S: 23.8 ± 0.7%
  % Sub-G1: 11.8 ± 0.5 %
[3]; U-937/Bcl-2, 72 h, 1 µM
  % G1: 14.0 ± 0.6 %
  % G2-M: 22.7 ± 0.2%
  % S: 17.1 ± 1.4%
  % Sub-G1: 37.7 ± 1.5 %
[4]
  IC50: 6.5 ± 1.7 µM
[5]; U-937, 24 h, 3 µM
  % G1: 42.7 ± 0.5%
  % G2-M: 25.2 ± 0.1%
  % S: 24.6 ± 0.8%
  % Sub-G1: 5.9 ± 0.3%
[5]; U-937, 24 h, 10 µM
  % G1: 36.7 ± 1.8 %
  % G2-M: 23.8 ± 0.4%
  % S: 25.5 ± 0.5%
  % Sub-G1: 11.9 ± 1.6 %
[5]; U-937, 48 h, 3 µM
  % G1: 51.0 ± 0.5%
  % G2-M: 19.2 ± 0.5%
  % S: 24.0 ± 0.3%
  % Sub-G1: 5.1 ± 0.1%
[5]; U-937, 48 h, 10 µM
  % G1: 47.1 ± 1.1 %
  % G2-M: 18.2 ± 0.1%
  % S: 23.4 ± 0.3%
  % Sub-G1: 10.1 ± 0.6 %
[5]; U-937, 72 h, 3 µM
  % G1: 53.1 ± 2.0%
  % G2-M: 16.5 ± 0.6%
  % S: 22.3 ± 1.4%
  % Sub-G1: 6.4 ± 0.6%
[5]; U-937, 72 h, 10 µM
  % G1: 43.3 ± 1.7%
  % G2-M: 15.0 ± 0.6%
  % S: 21.2 ± 1.2%
  % Sub-G1: 19.0 ± 3.3 %
